The target in assay [1] is T1, ALK (Homo sapiens, UniProt Q9UM73).
T1 construct: purchased DiscoverX
Nature of the assay: KdELECT binding assay (DiscoverX). The conditions noted are these: read-out: Kd study, ALK. The text has this:
(§1) Tests of the compounds confirm suitability for ALK + MET + EGFR polypharmacology optimization (Table 1). […] For compound 1, ^3 with the acrylamide function at the site corresponding to that of WZ4002, both ALK and MET binding were inhibited more weakly compared to EGFR binding. […] The sensitivity to the assay conditions seen for both forms of EGFR and uniformly tighter binding under the new assay conditions may indicate tighter binding for ALK and MET under these altered assay conditions as well.
(§2) The three tricyclic compounds (1, 2a and 2b) were purchased from the company ARTTSynthesis (www.arttsynthesis.com). Tests for binding properties were performed by the company DiscoverX (www.discoverx.com), using a concentration of 1 µM against ALK, MET and EGFR variants L858R and L858R_T790M) using KdELECT and scanKINETIC from DiscoverX [124, 125].

Assay [2] deals with T2, EGFR (L858R) (Homo sapiens, UniProt P00533, L858R).
T2 construct: purchased DiscoverX
Nature of the assay: KdELECT binding assay (DiscoverX). The conditions noted are these: read-out: Kd study, EGFR LR.
From the text: as §1, §2

Assay [3] has as its target T3, EGFR (L858R, T790M) (Homo sapiens, UniProt P00533, L858R/T790M).
T3 construct: purchased DiscoverX
Nature of the assay: KdELECT binding assay (DiscoverX). The settings on record: read-out: Kd study, EGFR LR+TM.
From the text: as §1, §2

For assay [4], the target named is T4, MET (Homo sapiens, UniProt P08581).
T4 construct: purchased DiscoverX
Nature of the assay: KdELECT binding assay (DiscoverX). The settings on record: read-out: Kd study, MET.
From the text: as §1, §2

For assay [5], the target named is T2, EGFR (L858R). Nature of the assay: scanKINETIC binding kinetics assay (DiscoverX). The settings on record: for Percentage after 30× dilution, EGFR LR: apparent residual compound relative to bound value at 1 h, significantly higher than 3% indicates slow dissociation; for Percentage comparing 1 or 6 h incubation, EGFR LR: percentages significantly lower than 100% indicate slow association.
From the text: as §1
(§3) The kinetics testing results (Table 1) support several further important conclusions. […] The simultaneous appearance of slow association and slow dissociation complicates the interpretation of the results, but the percentage values shown in Table 1 show the apparent residual amounts of compounds relative to bound values at 1 h. These values indicate retention of roughly half of compound 1, and nearly all of compound 2a, after dilution. […] The similarity of compound 2a to 2b and 1 with respect to structure and binding strength, differing only in the linker to the acrylamide binding group, is further evidence that that it is the covalent binding property that determines the difference in binding kinetics, rather than e.g. a slow conformational change of the target enzymes.
as §2

For assay [6], the target named is T3, EGFR (L858R, T790M). Put plainly: scanKINETIC binding kinetics assay (DiscoverX). The conditions noted are these: for Percentage after 30× dilution, EGFR LR+TM: apparent residual compound relative to bound value at 1 h, significantly higher than 3% indicates slow dissociation; for Percentage comparing 1 or 6 h incubation, EGFR LR+TM: percentages significantly lower than 100% indicate slow association.
From the text: as §1, §3, §2

Assay [7] relates to EGFR (L858R) and EGFR (L858R, T790M). Nature of the assay: scanKINETIC conclusions stated in text for both EGFR forms together. Type of assay: binding. The conditions noted are these: for Association behaviour: comparing 1-h and 6-h incubation times; for Covalent binding to EGFR (both forms): interpretation of kinetics data; for Dissociation behaviour: 30-fold dilution following one hour of incubation; for Retention of compound after dilution: relative to bound values at 1 h.
From the text: as §1, §3, §2

The target in assay [8] is T1, ALK. Details: method as in PMID 20033049. The conditions noted are these: cited from earlier work.
Assay [9] has as its target T4, MET. The settings on record: cited from earlier work.
The subject of a further assay is EGFR. Also on record: method as in PMID 20033049. The settings on record: cited from earlier work.
For a further assay, the system named is MET mutant Y1230C. Also on record: method as in PMID 19459657. The conditions noted are these: cellular assay; cited from earlier work.
Setting [10] is: Apparent Kd, EGFR LR (30× dilution), 30× dilution after 1 h incubation.
The mark [11] stands for this setting: Kd, EGFR LR (1 h), scanKINETIC, 1 h incubation.
The mark [12] stands for this setting: Kd, EGFR LR (6 h), scanKINETIC, 6 h incubation.
The mark [13] stands for this setting: Apparent Kd, EGFR LR+TM (30× dilution), 30× dilution after 1 h incubation.
The mark [14] stands for this setting: Kd, EGFR LR+TM (1 h), scanKINETIC, 1 h incubation.
[15] abbreviates: Kd, EGFR LR+TM (6 h), scanKINETIC, 6 h incubation.

Here are results for five molecules from publication PMC5496928, “Data driven polypharmacological drug design for lung cancer: analyses for targeting ALK, MET, and EGFR” (Journal of Cheminformatics, 2017).

T1 sequence (Q9UM73 19-1620): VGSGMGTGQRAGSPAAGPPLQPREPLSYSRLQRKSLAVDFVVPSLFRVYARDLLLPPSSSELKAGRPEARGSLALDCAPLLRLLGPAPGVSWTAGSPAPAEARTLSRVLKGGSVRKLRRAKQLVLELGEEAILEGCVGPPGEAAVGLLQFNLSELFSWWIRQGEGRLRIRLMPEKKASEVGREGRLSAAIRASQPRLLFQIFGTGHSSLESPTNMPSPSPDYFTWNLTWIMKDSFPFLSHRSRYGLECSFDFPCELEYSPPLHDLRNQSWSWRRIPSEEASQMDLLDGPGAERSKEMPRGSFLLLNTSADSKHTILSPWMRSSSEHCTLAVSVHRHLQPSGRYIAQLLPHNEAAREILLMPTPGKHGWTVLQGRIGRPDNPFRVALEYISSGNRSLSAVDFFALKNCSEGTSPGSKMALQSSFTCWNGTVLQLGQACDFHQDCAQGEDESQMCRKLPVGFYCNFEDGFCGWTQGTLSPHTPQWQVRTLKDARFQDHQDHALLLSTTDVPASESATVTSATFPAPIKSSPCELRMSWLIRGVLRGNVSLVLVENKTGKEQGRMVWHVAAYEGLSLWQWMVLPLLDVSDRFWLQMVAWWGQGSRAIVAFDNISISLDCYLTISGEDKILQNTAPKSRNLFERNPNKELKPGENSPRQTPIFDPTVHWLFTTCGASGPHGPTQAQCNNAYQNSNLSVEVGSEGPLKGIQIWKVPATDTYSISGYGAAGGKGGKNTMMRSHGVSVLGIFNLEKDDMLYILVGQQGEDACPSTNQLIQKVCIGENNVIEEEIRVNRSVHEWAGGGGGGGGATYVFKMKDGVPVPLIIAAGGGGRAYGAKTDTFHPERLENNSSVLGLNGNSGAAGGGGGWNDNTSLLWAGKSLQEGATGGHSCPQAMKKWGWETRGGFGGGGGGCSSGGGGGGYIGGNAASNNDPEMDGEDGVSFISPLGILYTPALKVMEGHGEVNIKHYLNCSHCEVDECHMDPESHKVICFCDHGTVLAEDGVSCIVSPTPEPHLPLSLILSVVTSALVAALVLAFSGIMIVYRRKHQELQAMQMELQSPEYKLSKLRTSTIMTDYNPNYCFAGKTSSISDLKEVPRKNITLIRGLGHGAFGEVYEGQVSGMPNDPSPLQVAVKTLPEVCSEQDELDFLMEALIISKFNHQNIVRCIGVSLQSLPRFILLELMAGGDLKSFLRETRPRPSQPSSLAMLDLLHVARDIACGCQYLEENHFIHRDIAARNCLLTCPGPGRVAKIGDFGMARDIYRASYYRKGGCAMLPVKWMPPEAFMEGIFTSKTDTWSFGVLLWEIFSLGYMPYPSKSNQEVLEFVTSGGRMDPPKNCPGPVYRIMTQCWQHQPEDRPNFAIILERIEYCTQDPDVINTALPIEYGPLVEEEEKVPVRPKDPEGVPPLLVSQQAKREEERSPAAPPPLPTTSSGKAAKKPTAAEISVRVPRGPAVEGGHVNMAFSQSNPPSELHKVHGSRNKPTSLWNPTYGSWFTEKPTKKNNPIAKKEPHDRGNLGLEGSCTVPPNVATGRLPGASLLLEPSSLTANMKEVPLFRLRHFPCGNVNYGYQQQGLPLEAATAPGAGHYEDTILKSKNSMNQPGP
T4 sequence (P08581 25-1390): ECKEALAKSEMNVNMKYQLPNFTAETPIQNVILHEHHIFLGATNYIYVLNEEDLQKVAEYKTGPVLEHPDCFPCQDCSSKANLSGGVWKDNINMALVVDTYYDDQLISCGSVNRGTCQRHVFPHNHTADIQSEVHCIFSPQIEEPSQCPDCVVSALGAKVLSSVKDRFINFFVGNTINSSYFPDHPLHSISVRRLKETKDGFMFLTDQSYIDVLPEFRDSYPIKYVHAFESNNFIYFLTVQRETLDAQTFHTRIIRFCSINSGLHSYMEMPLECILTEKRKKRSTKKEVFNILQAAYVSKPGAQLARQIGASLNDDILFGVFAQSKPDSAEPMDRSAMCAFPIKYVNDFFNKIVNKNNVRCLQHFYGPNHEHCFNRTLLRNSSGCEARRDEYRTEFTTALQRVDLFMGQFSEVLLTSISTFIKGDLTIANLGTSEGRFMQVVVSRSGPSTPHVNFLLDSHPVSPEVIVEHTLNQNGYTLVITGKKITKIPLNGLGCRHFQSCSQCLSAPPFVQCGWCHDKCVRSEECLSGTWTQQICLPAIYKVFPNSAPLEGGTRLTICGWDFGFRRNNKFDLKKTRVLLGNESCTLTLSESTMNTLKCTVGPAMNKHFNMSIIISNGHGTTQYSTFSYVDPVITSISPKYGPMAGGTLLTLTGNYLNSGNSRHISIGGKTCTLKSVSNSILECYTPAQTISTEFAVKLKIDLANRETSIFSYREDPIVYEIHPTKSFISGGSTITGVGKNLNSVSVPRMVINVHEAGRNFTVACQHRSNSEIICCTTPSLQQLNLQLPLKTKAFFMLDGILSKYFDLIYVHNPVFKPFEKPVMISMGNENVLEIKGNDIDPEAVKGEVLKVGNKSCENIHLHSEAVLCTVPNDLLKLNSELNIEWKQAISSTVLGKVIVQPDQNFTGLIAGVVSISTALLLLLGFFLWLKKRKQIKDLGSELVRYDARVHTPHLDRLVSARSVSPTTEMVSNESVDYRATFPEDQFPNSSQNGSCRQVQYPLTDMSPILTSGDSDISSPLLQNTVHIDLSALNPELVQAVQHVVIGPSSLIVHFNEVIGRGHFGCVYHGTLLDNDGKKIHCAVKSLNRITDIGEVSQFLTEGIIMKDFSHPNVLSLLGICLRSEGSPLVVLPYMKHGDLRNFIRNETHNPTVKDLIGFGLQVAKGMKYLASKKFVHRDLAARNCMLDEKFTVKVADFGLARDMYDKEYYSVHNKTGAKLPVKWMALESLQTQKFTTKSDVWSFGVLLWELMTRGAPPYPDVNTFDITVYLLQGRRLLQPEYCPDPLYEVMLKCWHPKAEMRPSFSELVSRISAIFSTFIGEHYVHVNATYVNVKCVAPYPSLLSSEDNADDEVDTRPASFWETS

As to `C=CC(=O)NCc1cccc(Nc2ncc(Cl)c(Nc3ccccc3)n2)c1` [compound 2b, N‐[(3‐{[5‐chloro‐4‐(phenylamino)pyrimidin‐2‐yl]amino}phenyl)methyl]prop‐2‐enamide], the Kd at ALK [1] worked out at 390 nM; at EGFR (L858R) [2], 780 nM; at EGFR (L858R, T790M) [3] it was 270 nM; on MET [4], 330 nM; at EGFR (L858R) [5] (setting [10]), 2900 nM; on EGFR (L858R) [5] (setting [11]), 170 nM. Further, the Kd at EGFR (L858R) [5] (setting [12]) came to 110 nM; on EGFR (L858R, T790M) [6] (setting [13]) it was 4100 nM; on EGFR (L858R, T790M) [6] (setting [14]) it was 58 nM; at EGFR (L858R, T790M) [6] (setting [15]), 100 nM. Besides, the “Percentage after 30× dilution, EGFR LR” value on EGFR (L858R) [5] is 5.9%. Further, the “Percentage comparing 1 or 6 h incubation, EGFR LR” value on EGFR (L858R) [5] is on record as 65%. In addition, on EGFR (L858R, T790M) [6], the “Percentage after 30× dilution, EGFR LR+TM” value was found to be 1.4%. The “Percentage comparing 1 or 6 h incubation, EGFR LR+TM” value at EGFR (L858R, T790M) [6] was 170%. Also, the “Time within which binding is complete” value in assay [7] is on record as at most 1 h. Also, the “Time within which dissociation is complete” value in [7] (after 30-fold dilution) is listed as at most 5 h. Besides, the Association behaviour entry in [7] is recorded as “fast association”. Besides, the “Covalent binding to EGFR (both forms)” value in assay [7] is given as “no evidence of covalent binding”.

For `C=CC(=O)Nc1cccc(Nc2ncc(Cl)c(Nc3ccccc3)n2)c1` [compound 2a, N‐(3‐{[5‐chloro‐4‐(phenylamino)pyrimidin‐2‐yl]amino}phenyl)prop‐2‐enamide], the Kd at ALK [1] came to 340 nM; at EGFR (L858R) [2], 710 nM; at EGFR (L858R, T790M) [3] it was 110 nM; at MET [4], 250 nM; at EGFR (L858R) [5] (setting [10]), 340 nM; at EGFR (L858R) [5] (setting [11]) it was 340 nM. For the same molecule, the Kd at EGFR (L858R) [5] (setting [12]) is 47 nM; on EGFR (L858R, T790M) [6] (setting [13]), 56 nM; at EGFR (L858R, T790M) [6] (setting [14]), 56 nM; at EGFR (L858R, T790M) [6] (setting [15]) it was 8 nM. Besides, at EGFR (L858R) [5], the “Percentage after 30× dilution, EGFR LR” value is reported as 100%. For the same molecule, the “Percentage comparing 1 or 6 h incubation, EGFR LR” value at EGFR (L858R) [5] stood at 14%. At EGFR (L858R, T790M) [6], the “Percentage after 30× dilution, EGFR LR+TM” value is reported as 100%. Moreover, the “Percentage comparing 1 or 6 h incubation, EGFR LR+TM” value at EGFR (L858R, T790M) [6] is given as 14%. In addition, the Dissociation behaviour entry in assay [7] was “slow dissociation behavior”. In addition, in [7], the Association behaviour entry was “relatively slow-binding”. The “Covalent binding to EGFR (both forms)” value in [7] is on record as “able to bind covalently”. In assay [7], the “Retention of compound after dilution” value is “nearly all”.

As for `C=CC(=O)Nc1cccc(Oc2nc(Nc3ccc(N4CCN(C)CC4)cc3OC)ncc2Cl)c1` [WZ4002], the “Binding to ALK” value at ALK [8] is “known to bind”. For the same molecule, the “Binding to MET” value on MET [9] is “known to bind”. Moreover, in the assay on EGFR, the “Covalent binding to EGFR” value is “known to bind covalently to EGFR”.

On to `C[C@@H](Oc1cc(-c2cnn(C3CCNCC3)c2)cnc1N)c1c(Cl)ccc(F)c1Cl` [crizotinib], for which the “Weakening of binding to MET mutant Y1230C” value in the assay on MET mutant Y1230C is 15 fold.

For `C=CC(=O)Nc1cccc(Nc2nc(Nc3ccccc3)ncc2Cl)c1` [compound 1, N‐(3‐{[5‐chloro‐2‐(phenylamino)pyrimidin‐4‐yl]amino}phenyl)prop‐2‐enamide], the Kd at ALK [1] was 800 nM; at EGFR (L858R) [2], 420 nM; at EGFR (L858R, T790M) [3], 110 nM; at MET [4], over 1000 nM; on EGFR (L858R) [5] (setting [11]) it was 57 nM; at EGFR (L858R) [5] (setting [12]), 5.7 nM. Further, the Kd was 25 nM on EGFR (L858R, T790M) [6] (setting [14]) and 3.2 nM on EGFR (L858R, T790M) [6] (setting [15]). In addition, the “Percentage comparing 1 or 6 h incubation, EGFR LR” value on EGFR (L858R) [5] was found to be 10%. For the same molecule, on EGFR (L858R, T790M) [6], the “Percentage comparing 1 or 6 h incubation, EGFR LR+TM” value is listed as 13%. Moreover, the Dissociation behaviour entry in assay [7] was “slow dissociation behavior”. For the same molecule, the Association behaviour entry in assay [7] is listed as “relatively slow-binding”. Further, the “Retention of compound after dilution” value in assay [7] was “roughly half”.
